Source: patent US10836769B2, “Substituted pyrrolizine compounds and uses thereof” (Gilead Sciences, Inc., priority 2018, dated 2020)
Values after ≈ are worked out from the molar mass of the structure shown. Read-outs that look alike come from different tables or passages of the source.

Columns and labels:
[1] = Kinetic Solubility; assay type: physicochemical; conditions: 0.2 to 100 μM, BD Gentest Solubility Scanner
Procedure: The 10 mM DMSO stock solution of the test compound is serially diluted into a 96-well “DMSO stock dilution plate”. Then Pipette 2 μL from the DMSO stock dilution plate into the “Sample plate” and dilute with 198 µL of the assay media to generate the final concentrations of the test compound ranging from 0.2 to 100 μM. The “Sample plate” is run on a BD Gentest Solubility Scanner.

[2] = system: HBV; assay: HBV DNA Quantification Assay; assay type: cell-based
Procedure: A HepG2 cell line overexpressing the HBV virus attachment receptor sodium-taurocholate cotransporting polypeptide (NTCP) was grown to confluency in DMEM growth medium, Dulbecco's Modified Eagle Medium without sodium pyruvate (Life Technologies, Rockville, Md.) supplemented with 10% FBS (Thermo Scientific, Waltham, Md.), 1% penicillin/streptomycin (Life Technologies, Rockville, Md.) and 2 mM L-glutamine (Life Technologies, Rockville, Md.) in T175 flasks. Cells were infected with HBV AD38 viral particles (Texcell, Frederick, USA) at 4000 genome equivalents per cell. After allowing viral infection to take place for 4 days, the infected cells were harvested from the flasks by trypsinization, washed twice with OptiMEM (Life Technologies, Rockville, Md.) and re-suspended in DMEM containing 2% FBS and 1% DMSO at a density of 0.25E6 cells/ml. Infected cells were seeded on 384 well collagen coated plates (Greiner, Austria) at a density of 20,000 cells/well containing serially diluted compounds of the present disclosure or DMSO (0.5%) in a final volume of 80 μl. The assay plates were incubated for a period of 5 days and the antiviral activity of the test compounds were assayed by detecting the presence of HBV DNA in the culture supernatant using the QuantiGene™ 2.0 nucleic acid quantification kit (Affymetrix, Santa Clara, Calif.).
The culture supernatant was harvested and treated with lysis buffer containing Proteinase K (Affymetrix, Santa Clara, Calif.). The supernatant was incubated with HBV viral DNA specific probes (Affymetrix, Santa Clara, Calif.) for 30 minutes at 55° C. This was followed by addition of 0.2M NaOH for 30 minutes at room temperature to denature the DNA, followed by addition of Neutralization buffer (Affymetrix, Santa Clara, Calif.). The resulting lysed and neutralized supernatant was then added to QuantiGene™ 2.0 384 well plates coated with capture oligonucleotides and incubated overnight at 55° C. The HBV specific probe set consists of Capture Extender oligonucleotides (CE's) and blocking probes. Following the overnight incubation, the wells were incubated for one hour sequentially with a Pre-Amplifier, Amplifier and Labeled probes conjugated to alkaline phosphatase with a wash step between incubations. After the final wash step, the alkaline phosphatase substrate (Luminol APS5) was added and the resulting luminescence signal was read in an EnVision Multilabel Plate Reader (PerkinElmer, Santa Clara, Calif.). The EC50 values were calculated from the fit of the dose-response curves to a four-parameter equation. All EC50 values represent geometric mean values of a minimum of four determinations.

[3] = aqueous buffer, kinetic from dmso stock, pH = 7, read-out: Kinetic Solubility at pH = 7
[4] = simulated gastric fluid, kinetic from dmso stock, pH = 1, read-out: Kinetic Solubility at pH = 1
[5] = Hepatitis B virus, 120 h, HepG2 cell line overexpressing NTCP infected with HBV AD38 viral particles, HBV DNA in culture supernatant after 5 days, geometric mean of a minimum of four determinations, read-out: EC50
[6] = pH = 1, read-out: Kinetic Solubility at pH = 1
[7] = pH = 7, read-out: Kinetic Solubility at pH = 7
[8] = HepG2 cell line overexpressing NTCP infected with HBV AD38 viral particles, HBV DNA in culture supernatant after 5 days, geometric mean of a minimum of four determinations, read-out: EC50
[9] = assay media at pH 1 (composition not named), simulated gastric fluid, kinetic from dmso stock, pH = 1, read-out: Kinetic Solubility at pH = 1
[10] = assay media at pH 7 (composition not named), aqueous buffer, kinetic from dmso stock, pH = 7, read-out: Kinetic Solubility at pH = 7
[11] = Hepatitis B virus, HepG2, 120 h

Compound | solubility kinetic [1, 3] | solubility kinetic [1, 4] | EC50 [2, 5] | other results
Cc1c(C(=O)Nc2cc(F)c(F)c(F)c2)c2n(c1C(=O)C(=O)NC1(c3nncs3)CC(F)(F)C1)CCC2 [Example 1, 5-(2-((3,3-difluoro-1-(1,3,4-thiadiazol-2-yl)cyclobutyl)amino)-2-oxoacetyl)-6-methyl-N-(3,4,5-trifluorophenyl)-2,3-dihydro-1H-pyrrolizine-7-carboxamide] | 1.7 µM (≈ 0.917 µg/mL) | < 1 µM | 2.5 nM | –
Cc1c(C(=O)Nc2ccc(F)c(C#N)c2)c2n(c1C(=O)C(=O)NC1(c3nncs3)CC(F)(F)C1)CCC2 [Example 2] | 7.4 µM (≈ 3.91 µg/mL) | 7.8 µM (≈ 4.12 µg/mL) | 4.8 nM | –
Cc1c(C(=O)Nc2ccc(F)c(F)c2)c2n(c1C(=O)C(=O)NC1(c3nncs3)CC(F)(F)C1)CCC2 [Example 3, 5-(2-((3,3-difluoro-1-(1,3,4-thiadiazol-2-yl)cyclobutyl)amino)-2-oxoacetyl)-N-(3,4-difluorophenyl)-6-methyl-2,3-dihydro-1H-pyrrolizine-7-carboxamide] | 1.1 µM (≈ 0.574 µg/mL) | 1.5 µM (≈ 0.782 µg/mL) | 2.3 nM | –
Cc1c(C(=O)Nc2cc(F)c(F)c(F)c2)c2n(c1C(=O)C(=O)NC1(c3cn(C)nn3)CC(F)(F)C1)CCC2 [Example 4] | 39.9 µM (≈ 21.4 µg/mL) | 43.3 µM (≈ 23.2 µg/mL) | 7.5 nM | –
Cc1c(C(=O)Nc2ccc(F)c(C#N)c2)c2n(c1C(=O)C(=O)NC1(c3cn(C)nn3)CC(F)(F)C1)CCC2 [Example 5, N-(3-cyano-4-fluorophenyl)-5-(2-((3,3-difluoro-1-(1-methyl-1H-1,2,3-triazol-4-yl)cyclobutyl)amino)-2-oxoacetyl)-6-methyl-2,3-dihydro-1H-pyrrolizine-7-carboxamide] | 20.7 µM (≈ 10.9 µg/mL) | 11.3 µM (≈ 5.94 µg/mL) | 43.6 nM | –
Cc1c(C(=O)Nc2ccc(F)c(F)c2)c2n(c1C(=O)C(=O)NC1(c3cn(C)nn3)CC(F)(F)C1)CCC2 [Example 6, 5-(2-((3,3-difluoro-1-(1-methyl-1H-1,2,3-triazol-4-yl)cyclobutyl)amino)-2-oxoacetyl)-N-(3,4-difluorophenyl)-6-methyl-2,3-dihydro-1H-pyrrolizine-7-carboxamide] | 44.8 µM (≈ 23.2 µg/mL) | 46.1 µM (≈ 23.9 µg/mL) | 14 nM | –
Cc1c(C(=O)Nc2ccc(F)cc2)c2n(c1C(=O)C(=O)NC1(c3cnnn3C)CC(F)(F)C1)CCC2 [Example 7, 5-(2-((3,3-difluoro-1-(1-methyl-1H-1,2,3-triazol-5-yl)cyclobutyl)amino)-2-oxoacetyl)-N-(4-fluorophenyl)-6-methyl-2,3-dihydro-1H-pyrrolizine-7-carboxamide] | – | – | 17.9 nM | –
Cc1c(C(=O)Nc2ccc(F)cc2)c2n(c1C(=O)C(=O)NC1(c3nncs3)CC(F)(F)C1)CCC2 [Example 8] | 3.9 µM (≈ 1.96 µg/mL) | 10.5 µM (≈ 5.29 µg/mL) | 4.7 nM | –
Cc1c(C(=O)Nc2ccc(F)cc2)c2n(c1C(=O)C(=O)NC1(c3cnn(C)n3)CC(F)(F)C1)CCC2 [Example 9, 5-(2-((3,3-difluoro-14(2-methyl-2H-1,2,3-triazol-4-yl)cyclobutyl)amino)-2-oxoacetyl)-N-4(4-fluorophenyl)-6-methyl-2,3-dihydro-1H-pyrrolizine-7-carboxamide] | – | – | – | solubility kinetic [1, 6]: 2.8 µM (≈ 1.4 µg/mL); solubility kinetic [1, 7]: 2.3 µM (≈ 1.15 µg/mL); EC50 [2, 8]: 5.8 nM
Cc1c(C(=O)Nc2ccc(F)cc2)c2n(c1C(=O)C(=O)NC1(c3cn(C)nn3)CC(F)(F)C1)CCC2 [Example 10] | – | – | – | solubility kinetic [1, 6]: 1.4 µM (≈ 0.701 µg/mL); solubility kinetic [1, 7]: 52.8 µM (≈ 26.4 µg/mL); EC50 [2, 8]: 33.2 nM
Cc1c(C(=O)Nc2ccc(F)c(F)c2)c2n(c1C(=O)C(=O)NC1(c3cn(C)nn3)CC1)CCC2 [Example 11] | – | – | – | solubility kinetic [1, 9]: 48.9 µM (≈ 22.9 µg/mL); solubility kinetic [1, 10]: 56.3 µM (≈ 26.4 µg/mL); EC50 [2, 11]: 71.2 nM
Cc1c(C(=O)Nc2ccc(F)c(F)c2)c2n(c1C(=O)C(=O)NC1(c3cn(C[Si](C)(C)C)nn3)CC1)CCC2 [Example 12] | – | – | – | EC50 [2, 11]: 93.6 nM
C#CC1(NC(=O)C(=O)c2c(C)c(C(=O)Nc3ccc(F)c(F)c3)c3n2CCC3)CC1 [Example 13] | – | – | – | solubility kinetic [1, 9]: 5 µM (≈ 2.06 µg/mL); solubility kinetic [1, 10]: 6.4 µM (≈ 2.63 µg/mL); EC50 [2, 11]: 8.5 nM
Cc1c(C(=O)Nc2ccc(F)c(F)c2)c2n(c1C(=O)C(=O)N[C@](C)(C(N)=O)C(F)(F)F)CCC2 [Example 47, (R)-5-(2-((3-amino-1,1,1-trifluoro-2-methyl-3-oxopropan-2-yl)amino)-2-oxoacetyl)-N-(3,4-difluorophenyl)-6-methyl-2,3-dihydro-1H-pyrrolizine-7-carboxamide] | – | – | 54.1 nM | –
Cc1c(C(=O)Nc2ccc(F)c(F)c2)c2n(c1C(=O)C(=O)N[C@@](C)(C(N)=O)C(F)(F)F)CCC2 [Example 48, (S)-5-(2-((3-amino-1,1,1-trifluoro-2-methyl-3-oxopropan-2-yl)amino)-2-oxoacetyl)-N-(3,4-difluorophenyl)-6-methyl-2,3-dihydro-1H-pyrrolizine-7-carboxamide] | – | – | 63.9 nM | –
Cc1c(C(=O)Nc2ccc(F)c(C(F)F)c2)c2n(c1C(=O)C(=O)NC1(c3nncs3)CC(F)(F)C1)CCC2 [Example 49, 5-(2-((3,3-difluoro-1-(1,3,4-thiadiazol-2-yl)cyclobutyl)amino)-2-oxoacetyl)-N-(3-(difluoromethyl)-4-fluorophenyl)-6-methyl-2,3-dihydro-1H-pyrrolizine-7-carboxamide] | – | – | 3.2 nM | –
COCc1cc(NC(=O)c2c(C)c(C(=O)C(=O)NC3(c4nncs4)CC(F)(F)C3)n3c2CCC3)ccc1F [Example 50] | – | – | 33.4 nM | –
COCc1cc(NC(=O)c2c(C)c(C(=O)C(=O)NC3(c4c[nH]nn4)CC(F)(F)C3)n3c2CCC3)ccc1F [Example 51] | – | – | 45 nM | –
O=C(NC1(c2nncs2)CC1)C(=O)c1c(Cl)c(C(=O)Nc2ccc(F)c(F)c2)c2n1CCC2 [Example 52, 5-(2-((1-(1,3,4-thiadiazol-2-yl)cyclopropyl)amino)-2-oxoacetyl)-6-chloro-N-(3,4-difluorophenyl)-2,3-dihydro-1H-pyrrolizine-7-carboxamide] | – | – | 11 nM | –
O=C(NC1(c2c[nH]nn2)CC1)C(=O)c1c(Cl)c(C(=O)Nc2ccc(F)c(F)c2)c2n1CCC2 [Example 53, 5-(2-((1-(1H-1,2,3-triazol-4-yl)cyclopropyl)amino)-2-oxoacetyl)-6-chloro-N-(3,4-difluorophenyl)-2,3-dihydro-1H-pyrrolizine-7-carboxamide] | – | – | 6.9 nM | –
O=C(NC1(c2c[nH]nn2)CC(F)(F)C1)C(=O)c1c(Cl)c(C(=O)Nc2ccc(F)c(F)c2)c2n1CCC2 [Example 54, 6-chloro-5-(2-((3,3-difluoro-1-(1H-1,2,3-triazol-4-yl)cyclobutyl)amino)-2-oxoacetyl)-N-(3,4-difluorophenyl)-2,3-dihydro-1H-pyrrolizine-7-carboxamide] | – | – | 1.6 nM | –
O=C(NC1(c2c[nH]nn2)CC(F)(F)C1)C(=O)c1c(Cl)c(C(=O)Nc2ccc(F)c(C(F)F)c2)c2n1CCC2 [Example 55, 6-chloro-5-(2-((3,3-difluoro-1-(1H-1,2,3-triazol-4-yl)cyclobutyl)amino)-2-oxoacetyl)-N-(3-(difluoromethyl)-4-fluorophenyl)-2,3-dihydro-1H-pyrrolizine-7-carboxamide] | – | – | 3 nM | –
O=C(NC1(c2c[nH]nn2)CC1)C(=O)c1c(Cl)c(C(=O)Nc2ccc(F)c(C(F)F)c2)c2n1CCC2 [Example 56] | – | – | 30.2 nM | –
